Paper PMC4266452, “Prediction of Thorough QT study results using action potential simulations based on ion channel screens” (Journal of Pharmacological and Toxicological Methods, 2014)
Several values for one entry are separate records, joined by “and”; a condition that tells them apart may be missing. Equal entries are not always repeated. Where two headings read alike, the source gives them in different places.

What was measured:
[1] = test system: QT interval on the body surface ECG; conditions: cited from earlier work; for QT shortening in the TQT study: range over the three drugs
[2] = cited from earlier work
[3] = Plasma concentration (Cmax) during the TQT study, total and calculated free; type: in vivo, human
[4] = target: KCNQ1/MinK (Homo sapiens, UniProt P51787); experiment: IonWorks Quattro KCNQ1/MinK screen (AstraZeneca, Q); conditions: −log10 of IC50 in Molar, Hill n = 1, 0.0 = pIC50 ≤ 0 fitted
Chain of KCNQ1/MinK (P51787 whole entry): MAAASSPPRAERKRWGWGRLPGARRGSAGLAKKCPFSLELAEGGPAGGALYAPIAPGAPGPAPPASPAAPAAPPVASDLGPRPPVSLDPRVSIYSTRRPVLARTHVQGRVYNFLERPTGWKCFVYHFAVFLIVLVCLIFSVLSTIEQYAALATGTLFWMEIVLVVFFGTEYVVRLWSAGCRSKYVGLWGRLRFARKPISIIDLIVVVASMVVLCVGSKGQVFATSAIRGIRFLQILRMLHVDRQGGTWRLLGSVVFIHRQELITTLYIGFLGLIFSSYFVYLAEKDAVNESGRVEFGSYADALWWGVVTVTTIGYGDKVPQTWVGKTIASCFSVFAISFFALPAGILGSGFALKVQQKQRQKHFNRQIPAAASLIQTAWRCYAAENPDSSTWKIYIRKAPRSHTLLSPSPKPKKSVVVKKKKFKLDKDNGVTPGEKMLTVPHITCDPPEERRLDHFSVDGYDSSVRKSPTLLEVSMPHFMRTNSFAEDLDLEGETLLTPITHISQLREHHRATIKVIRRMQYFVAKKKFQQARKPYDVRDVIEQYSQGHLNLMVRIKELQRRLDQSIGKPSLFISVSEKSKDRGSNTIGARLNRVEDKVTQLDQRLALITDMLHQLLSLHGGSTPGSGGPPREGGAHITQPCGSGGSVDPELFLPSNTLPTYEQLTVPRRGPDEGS

[5] = target: T1, Kv4.3/KChIP2.2 (Homo sapiens, UniProt Q9UK17); experiment: IonWorks Quattro Kv4.3/KChIP2.2 screen (AstraZeneca, Q); type: cell-based; conditions: IonWorks Quattro, −log10 of IC50 in Molar, Hill n = 1
T1 sequence (Q9UK17 1-655): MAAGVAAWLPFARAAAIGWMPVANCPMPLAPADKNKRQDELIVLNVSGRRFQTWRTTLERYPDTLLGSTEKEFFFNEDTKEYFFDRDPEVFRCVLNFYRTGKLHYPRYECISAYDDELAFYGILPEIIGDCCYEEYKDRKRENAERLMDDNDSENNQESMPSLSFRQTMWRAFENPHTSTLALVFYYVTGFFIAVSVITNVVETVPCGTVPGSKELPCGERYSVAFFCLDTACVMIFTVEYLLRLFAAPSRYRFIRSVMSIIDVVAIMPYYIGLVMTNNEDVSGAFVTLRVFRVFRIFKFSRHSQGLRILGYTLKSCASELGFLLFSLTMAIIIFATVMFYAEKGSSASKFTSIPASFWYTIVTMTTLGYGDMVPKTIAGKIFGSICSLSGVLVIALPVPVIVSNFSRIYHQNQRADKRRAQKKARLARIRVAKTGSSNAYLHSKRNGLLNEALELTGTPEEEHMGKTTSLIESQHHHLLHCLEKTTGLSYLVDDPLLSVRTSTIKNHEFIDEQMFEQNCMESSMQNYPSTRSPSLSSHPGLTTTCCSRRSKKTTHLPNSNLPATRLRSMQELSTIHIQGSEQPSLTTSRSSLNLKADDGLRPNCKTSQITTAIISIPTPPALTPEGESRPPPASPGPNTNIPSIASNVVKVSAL
T1 sequence (Q9NS61 1-270 partner): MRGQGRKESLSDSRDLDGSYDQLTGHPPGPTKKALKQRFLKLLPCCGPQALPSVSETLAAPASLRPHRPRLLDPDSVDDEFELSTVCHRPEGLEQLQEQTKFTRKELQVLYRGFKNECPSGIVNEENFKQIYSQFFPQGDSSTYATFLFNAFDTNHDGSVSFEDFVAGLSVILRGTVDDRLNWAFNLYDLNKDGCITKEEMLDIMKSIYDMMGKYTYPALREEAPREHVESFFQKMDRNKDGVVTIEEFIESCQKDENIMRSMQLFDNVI

[6] = ref Gintant (2011); cited from earlier work
[7] = target: T2, NaV1.5 (Homo sapiens, UniProt Q14524); experiment: IonWorks Quattro NaV1.5 screen (AstraZeneca, Q)
[8] = target: CaV1.2 (Homo sapiens, UniProt Q13936); experiment: IonWorks Quattro CaV1.2 screen (AstraZeneca, Q)
Chain of CaV1.2 (Q13936 whole entry): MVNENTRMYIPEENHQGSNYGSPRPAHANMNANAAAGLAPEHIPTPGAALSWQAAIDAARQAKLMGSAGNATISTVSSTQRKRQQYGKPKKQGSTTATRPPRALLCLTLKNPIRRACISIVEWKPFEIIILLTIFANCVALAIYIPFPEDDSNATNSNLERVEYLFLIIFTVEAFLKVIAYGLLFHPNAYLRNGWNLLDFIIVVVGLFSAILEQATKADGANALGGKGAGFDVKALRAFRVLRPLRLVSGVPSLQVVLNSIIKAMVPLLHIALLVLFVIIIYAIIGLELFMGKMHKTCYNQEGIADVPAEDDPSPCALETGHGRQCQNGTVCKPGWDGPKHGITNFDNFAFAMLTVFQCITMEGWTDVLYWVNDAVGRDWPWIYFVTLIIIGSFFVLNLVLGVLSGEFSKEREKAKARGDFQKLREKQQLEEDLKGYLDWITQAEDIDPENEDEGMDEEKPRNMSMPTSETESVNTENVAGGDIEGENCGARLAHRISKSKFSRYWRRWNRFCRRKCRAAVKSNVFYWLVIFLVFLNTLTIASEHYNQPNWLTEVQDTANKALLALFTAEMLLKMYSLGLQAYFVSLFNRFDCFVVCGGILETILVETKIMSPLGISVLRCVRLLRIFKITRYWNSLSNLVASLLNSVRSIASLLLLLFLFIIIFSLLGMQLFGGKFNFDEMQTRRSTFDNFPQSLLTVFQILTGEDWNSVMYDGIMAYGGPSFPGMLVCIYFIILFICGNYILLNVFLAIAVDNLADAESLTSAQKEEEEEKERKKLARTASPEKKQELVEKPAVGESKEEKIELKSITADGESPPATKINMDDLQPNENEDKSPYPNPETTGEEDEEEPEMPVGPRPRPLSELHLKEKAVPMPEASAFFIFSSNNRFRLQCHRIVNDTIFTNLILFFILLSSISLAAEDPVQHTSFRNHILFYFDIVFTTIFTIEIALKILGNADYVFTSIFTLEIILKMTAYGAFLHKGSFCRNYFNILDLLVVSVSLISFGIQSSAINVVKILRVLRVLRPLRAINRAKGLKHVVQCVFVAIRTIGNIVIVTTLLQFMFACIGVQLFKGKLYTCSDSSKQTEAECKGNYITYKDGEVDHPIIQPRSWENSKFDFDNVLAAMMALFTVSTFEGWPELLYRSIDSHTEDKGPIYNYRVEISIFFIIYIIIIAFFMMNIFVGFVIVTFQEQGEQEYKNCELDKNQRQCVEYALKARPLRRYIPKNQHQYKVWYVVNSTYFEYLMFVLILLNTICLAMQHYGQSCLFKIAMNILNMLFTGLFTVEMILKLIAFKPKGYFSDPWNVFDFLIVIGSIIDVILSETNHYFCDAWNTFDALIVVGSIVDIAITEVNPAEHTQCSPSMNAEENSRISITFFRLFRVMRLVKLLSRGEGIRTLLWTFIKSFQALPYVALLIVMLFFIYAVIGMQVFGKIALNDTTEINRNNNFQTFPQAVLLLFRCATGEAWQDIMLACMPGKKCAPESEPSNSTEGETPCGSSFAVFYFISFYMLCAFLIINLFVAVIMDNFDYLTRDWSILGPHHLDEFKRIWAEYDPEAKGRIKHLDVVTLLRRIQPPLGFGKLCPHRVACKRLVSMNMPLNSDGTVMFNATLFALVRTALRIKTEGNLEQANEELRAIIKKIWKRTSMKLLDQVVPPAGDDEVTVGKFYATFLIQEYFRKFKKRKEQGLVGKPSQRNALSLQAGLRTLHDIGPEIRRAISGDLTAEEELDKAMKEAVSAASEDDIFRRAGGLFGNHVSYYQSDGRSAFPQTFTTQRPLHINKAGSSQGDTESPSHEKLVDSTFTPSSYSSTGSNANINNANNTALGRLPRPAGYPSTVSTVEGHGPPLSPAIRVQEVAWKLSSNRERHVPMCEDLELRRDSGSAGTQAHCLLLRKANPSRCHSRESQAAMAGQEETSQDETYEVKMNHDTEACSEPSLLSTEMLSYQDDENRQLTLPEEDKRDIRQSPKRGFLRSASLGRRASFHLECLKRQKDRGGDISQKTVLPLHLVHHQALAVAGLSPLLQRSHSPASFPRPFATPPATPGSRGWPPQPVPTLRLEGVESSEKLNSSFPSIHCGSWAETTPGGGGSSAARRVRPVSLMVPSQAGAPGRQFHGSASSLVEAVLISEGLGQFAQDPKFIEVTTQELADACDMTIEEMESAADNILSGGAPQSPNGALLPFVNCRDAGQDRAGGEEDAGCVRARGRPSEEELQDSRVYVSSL
Chain of CaV1.2 (Q08289 whole entry partner): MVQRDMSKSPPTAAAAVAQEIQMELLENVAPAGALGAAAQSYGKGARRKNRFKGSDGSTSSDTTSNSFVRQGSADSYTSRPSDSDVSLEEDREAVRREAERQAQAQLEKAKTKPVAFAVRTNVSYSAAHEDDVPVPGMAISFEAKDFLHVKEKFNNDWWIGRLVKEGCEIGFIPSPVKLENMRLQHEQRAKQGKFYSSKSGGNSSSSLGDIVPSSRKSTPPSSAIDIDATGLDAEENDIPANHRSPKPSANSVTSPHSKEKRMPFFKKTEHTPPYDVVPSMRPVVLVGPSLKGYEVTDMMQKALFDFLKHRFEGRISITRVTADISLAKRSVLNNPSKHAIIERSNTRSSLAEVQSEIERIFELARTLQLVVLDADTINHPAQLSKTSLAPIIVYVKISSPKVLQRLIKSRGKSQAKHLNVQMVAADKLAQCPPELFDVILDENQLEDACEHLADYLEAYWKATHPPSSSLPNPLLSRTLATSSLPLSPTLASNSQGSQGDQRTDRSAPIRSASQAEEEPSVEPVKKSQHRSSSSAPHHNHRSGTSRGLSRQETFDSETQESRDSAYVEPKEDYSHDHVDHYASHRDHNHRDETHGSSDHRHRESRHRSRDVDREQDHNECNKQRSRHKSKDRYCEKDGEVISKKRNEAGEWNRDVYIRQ
Chain of CaV1.2 (P54289 25-956 partner limits assumed): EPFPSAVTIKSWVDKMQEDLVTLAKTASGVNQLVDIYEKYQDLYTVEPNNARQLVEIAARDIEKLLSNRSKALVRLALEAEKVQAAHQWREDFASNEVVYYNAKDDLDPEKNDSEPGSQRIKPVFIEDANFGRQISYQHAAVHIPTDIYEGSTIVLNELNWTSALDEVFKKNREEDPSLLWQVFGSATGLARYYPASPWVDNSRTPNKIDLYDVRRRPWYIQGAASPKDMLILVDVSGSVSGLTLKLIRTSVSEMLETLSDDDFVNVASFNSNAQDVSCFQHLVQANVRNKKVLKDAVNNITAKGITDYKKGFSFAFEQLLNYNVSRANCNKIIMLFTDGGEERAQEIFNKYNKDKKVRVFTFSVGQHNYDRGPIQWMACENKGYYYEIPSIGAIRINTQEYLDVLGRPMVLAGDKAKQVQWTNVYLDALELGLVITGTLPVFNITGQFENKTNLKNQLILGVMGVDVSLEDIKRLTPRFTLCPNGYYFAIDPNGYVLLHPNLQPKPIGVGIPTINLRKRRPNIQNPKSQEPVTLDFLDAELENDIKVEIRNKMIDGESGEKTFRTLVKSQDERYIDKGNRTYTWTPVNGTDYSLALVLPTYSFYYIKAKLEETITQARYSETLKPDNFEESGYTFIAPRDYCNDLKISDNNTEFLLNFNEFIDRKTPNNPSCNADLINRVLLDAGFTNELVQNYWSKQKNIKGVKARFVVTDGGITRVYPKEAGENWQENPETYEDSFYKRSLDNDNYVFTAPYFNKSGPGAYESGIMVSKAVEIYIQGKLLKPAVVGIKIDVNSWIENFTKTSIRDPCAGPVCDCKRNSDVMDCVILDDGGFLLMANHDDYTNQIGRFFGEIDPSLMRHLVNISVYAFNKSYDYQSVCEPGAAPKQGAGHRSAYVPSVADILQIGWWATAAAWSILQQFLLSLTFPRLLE
Chain of CaV1.2 (P54289 957-1103 partner limits assumed): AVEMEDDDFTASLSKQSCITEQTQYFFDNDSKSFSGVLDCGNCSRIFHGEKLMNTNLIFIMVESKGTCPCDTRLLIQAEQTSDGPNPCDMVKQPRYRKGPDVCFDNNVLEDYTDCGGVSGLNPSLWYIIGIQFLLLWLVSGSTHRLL

[9] = target: T2, NaV1.5; experiment: Second IonWorks Quattro NaV1.5 screen (GSK, Q2)
[10] = 40 mg, ref FDA product label review
[11] = Cmax high, calculated from ng/mL and molecular weight
[12] = Cmax high, calculated with PPB and molecular weight
[13] = Cmax low, calculated from ng/mL and molecular weight
[14] = first (lower) of two lines, not labelled low/high
[15] = second (higher) of two lines, not labelled low/high
[16] = Cmax low, calculated with PPB and molecular weight
[17] = IonWorks Quattro, −log10 of IC50 in Molar, Hill n = 1, 0.0 = pIC50 ≤ 0 fitted

Row | Compound | Cmax TOTAL ([2]; Cmax high, ref Gintant (2011)) [ng/mL] | Cmax TOTAL ([2]; Cmax low, ref Gintant (2011)) [ng/mL] | Cmax FREE ([3]; Cmax high, calculated with PPB) [ng/mL] | Cmax FREE [3, 12] [nM] | Free plasma concentration ([3]; Cmax low) [nM] | Cmax FREE ([3]; Cmax low, calculated with PPB) [ng/mL] | Kv4.3 pIC50 (Q) ([5]; 0.0 = pIC50 ≤ 0 fitted) | PPB (percent plasma binding) [6] | Cmax FREE [3, 16] [nM] | other results
1 | COCCCOc1cc(C[C@@H](C[C@H](N)[C@@H](O)C[C@H](C(=O)NCC(C)(C)C(N)=O)C(C)C)C(C)C)ccc1OC [ALISKIRIN] | – | – | – | – | – | – | – | – | – | relationship between exposure and QTc in words (COMMENTS) ([1]; ref Gintant (2011)): Lack of relationship between aliskirin exposure and QTcF
2 | COc1cc2nc(N(C)CCCNC(=O)C3CCCO3)nc(N)c2cc1OC (stereo not shown) [Alfuzosin] | 40.5 | 8 | 4.05 | 7.74 | 1.529 | 0.80 | 3.0 | 90% ppb | – | QTc change, individual correction [1, 10]: 4.3 ms; QTc change, population correction [1, 10]: 4.2 ms; Free plasma concentration ([3]; Cmax high): 7.739 nM; Cmax TOTAL [3, 11]: 77.39 nM; Cmax TOTAL [3, 13]: 15.29 nM; estimated TQT concentration (free plasma) ([3]; largest dose in the TQT study): < 10^–2 μM; KCNQ1 pIC50 (Q) [4]: 3.9
3 | NC(=O)C(c1ccccc1)(c1ccccc1)[C@@H]1CCN(CCc2ccc3c(c2)CCO3)C1 [Darifenacin] | – | – | – | – | – | – | 4.9 | 98% PPB | – | QT shortening in the TQT study ([1]; ref Gintant (2011)): 2 to 7 ms; Cmax TOTAL ([2]; first (lower) of two lines, not labelled low/high, ref Gintant (2011)): 5.6 ng/mL; Cmax TOTAL ([2]; second (higher) of two lines, not labelled low/high, ref Gintant (2011)): 63.3 ng/mL; Cmax FREE [3, 14]: 0.112 ng/mL and 0.2207 nM; Cmax TOTAL [3, 14]: 11.0345 nM; Free plasma concentration [3, 14]: 0.2207 nM; Cmax FREE [3, 15]: 1.266 ng/mL and 2.495 nM; Cmax TOTAL [3, 15]: 124.729 nM; Free plasma concentration [3, 15]: 2.495 nM
4 | Cc1nc(Nc2ncc(C(=O)Nc3c(C)cccc3Cl)s2)cc(N2CCN(CCO)CC2)n1.O [Dasatinib] | 263 | 100 | 10.52 | 20.790 | 7.905 | 4 | – | 96% PPB | 7.905 | Free plasma concentration ([3]; Cmax high): 20.79 nM; Cmax TOTAL [3, 11]: 519.742 nM; Cmax TOTAL [3, 13]: 197.621 nM; Kv4.3 pIC50 (Q) ([5]; […]): 3.5
5 | O=C(O)c1ccc(-n2nc(-c3ccccc3O)nc2-c2ccccc2O)cc1 [Deferasirox] | – | – | – | – | – | – | – | 99.5% | – | NaV1.5 pIC50 (Q) [7, 17]: 4.1; Cmax TOTAL ([2]; Cmax TQT, 40mg/kg, comes from docs, ref Gintant (2011)): 199 comes from docs for Cmax uM; Cmax FREE ([3]; Cmax 40mg/kg): 995 nM; Cmax TOTAL ([3]; Cmax 40mg/kg): 199000 nM; Free plasma concentration ([3]; Cmax 40mg/kg): 995 nM; CaV1.2 pIC50 (Q) [8, 17]: 3.0; NaV1.5 pIC50 (Q2) ([9]; second independent Quattro screening, −log10 of IC50 in Molar, 0.0 = pIC50 ≤ 0 fitted): 3.3
6 | CN(CCOc1ccc(NS(C)(=O)=O)cc1)CCc1ccc(NS(C)(=O)=O)cc1 [Dofetilide] | – | – | – | – | – | – | – | – | – | total plasma conc ([2]; ref Gintant (2011)): 9.5 nM; plasma concentration ([3]; end of the line in nM): 9.5 nM; plasma concentration ([3]; end of the line in ng/mL): 4.195 nM; therapeutic range, lower value ([3]; line in ng/mL): 0.1766 ng/mL; therapeutic range, upper value ([3]; line in ng/mL): 0.8832 ng/mL; total plasma conc ([3]; line in ng/mL): 4.1952 ng/mL
7 | C[C@@H](O)[C@H]1C(=O)N2C(C(=O)O)=C(S[C@@H]3CN[C@H](CNS(N)(=O)=O)C3)[C@H](C)[C@H]12 [Doripenem] | 45000 | 21000 | 41355 | 98346.2 | 45894.9 | 19299 | – | 8.1% PPB | 45894.9 | Free plasma concentration ([3]; Cmax high): 98346.2 nM; CaV1.2 pIC50 (Q) [8]: 5.7
8 | Cc1cc(C#N)cc(C)c1Oc1nc(Nc2ccc(C#N)cc2)nc(N)c1Br [Etravirine] | 1322 | 921 | 1.322 | 3.037 | – | 0.921 | 2.5 | 99.9% PPB | 2.116 | QTc change (QTcF) ([1]; TQT study, highest dose, ref Gintant (2011)): -5.70 ms; QT shortening in the TQT study ([1]; ref Gintant (2011)): 2 to 7 ms; TQT study outcome in words (COMMENTS) ([1]; ref Gintant (2011)): QT shortening; mean Cmax ([2]; supratherapeutic / highest dose of the TQT study, ref Gintant (2011)): 1378 ng/mL; KCNQ1 pIC50 (Q) [4]: 2.9
9 | CO[C@H]1C[C@@H]2CC[C@@H](C)[C@@](O)(O2)C(=O)C(=O)N2CCCC[C@H]2C(=O)O[C@H]([C@H](C)C[C@@H]2CC[C@@H](OCCO)[C@H](OC)C2)CC(=O)[C@H](C)/C=C(\C)[C@@H](O)[C@@H](OC)C(=O)[C@H](C)C[C@H](C)/C=C/C=C/C=C/1C [Everolimus] | – | – | – | – | – | – | 2.0 | 74% | – | NaV1.5 pIC50 (Q) [7]: 3.2; Cmax TOTAL ([2]; Cmax 50mg/kg, ref http://journals.lww.com/jto/pages/articleviewer.aspx?year=2011&issue=12000&article=00023&type=abstract Table 6): 251 ng/mL; Cmax FREE ([3]; Cmax 50mg/kg): 65.26 ng/mL; Cmax TOTAL ([3]; Cmax 50mg/kg): 261.943 nM; NaV1.5 pIC50 (Q2) [9]: 3.7; KCNQ1 pIC50 (Q) [4]: 4.0
10 | COc1c(N2C[C@@H]3CCCN[C@@H]3C2)c(F)cc2c(=O)c(C(=O)O)cn(C3CC3)c12 [Moxifloxacin] | – | 2793.4 | – | – | 2745 | 1257.030 | – | 55% PPB | – | –
11 | Cc1cn(-c2cc(NC(=O)c3ccc(C)c(Nc4nccc(-c5cccnc5)n4)c3)cc(C(F)(F)F)c2)cn1 [Nilotinib] | – | […] | – | – | 83.86 | 45.200 | – | 98% PPB | 83.861 | NaV1.5 pIC50 (Q) [7]: 3.0; Cmax TOTAL [3, 13]: 4193.028 nM; NaV1.5 pIC50 (Q2) [9]: […]
12 | O=C1c2cccc3c2[C@H](CCC3)CN1[C@@H]1CN2CCC1CC2 [Palonosetron] | 5.6 | 2.549 | 2.128 | 6.393 | 2.91 | 0.9686 | – | 62% | 2.910 | TQT study outcome in words (COMMENTS) ([1]; ref Gintant (2011)): Product labeling: no significant effect on any ECG interval; Free plasma concentration ([3]; Cmax high): 6.393 nM; Cmax TOTAL [3, 11]: 16.823 nM; Cmax TOTAL [3, 13]: 7.658 nM
13 | CCCc1nn(C)c2c(=O)[nH]c(-c3cc(S(=O)(=O)N4CCN(C)CC4)ccc3OCC)nc12 [Sildenafil] | – | – | 60.76 | 128.024 | – | 7.12 | 3.3 | 96% | 15.0021 | NaV1.5 pIC50 (Q) [7]: 3.3; NaV1.5 pIC50 (Q2) [9]: 2.9
14 | N[C@@H](CC(=O)N1CCn2c(nnc2C(F)(F)F)C1)Cc1cc(F)c(F)cc1F [Sitagliptin] | 5468 | 498 | 3827.6 | 9397.17 | – | 348.6 | – | 30% PPB | 855.851 | NaV1.5 pIC50 (Q) [7]: 3.1; TQT study outcome in words (COMMENTS) ([1]; ref Gintant (2011)): Minimal effects at supratherapeutic concentrations; CaV1.2 pIC50 (Q) [8, 17]: 1.0; NaV1.5 pIC50 (Q2) [9]: 3.2; KCNQ1 pIC50 (Q) [4]: 3.5
15 | O=C(O[C@H]1CN2CCC1CC2)N1CCc2ccccc2[C@@H]1c1ccccc1 [Solifenacin] | – | – | – | – | – | – | – | 98% PPB | – | –
16 | CC[C@@H](c1cccc(O)c1)[C@@H](C)CN(C)C [TAPENTADOL] | – | – | – | – | – | – | – | – | – | TQT study outcome in words (COMMENTS) ([1]; ref Gintant (2011)): 90% Confidence interval; study considered negative
